# Entries after “also recorded” stand apart in the source; their conditions may differ. Counter-ions that a name gives are not always drawn. Like-named read-outs stand apart in the source and are kept apart here.
# Tests used:
# DJ-1 RNAi HeLa cells [1] = format: cell-based, human; conditions: for rescue of the circular mitochondrial phenotype: paraquat-treated DJ-1 RNAi HeLa cells, supplements for 24 hours
# Experimental: (§1) HeLa-Kyoto cells stably expressing histone H2B-EGFP and mCherry-CAAX (clone 2B4), their parental cells, and HeLa-Kyoto expressing mouse DJ-1 transgene were used. Also, mouse embryonic fibroblast (MEF) (Pham et al., 2010) cells were used. Cells were maintained in DMEM supplemented with 10% fetal bovine serum (FBS), 2 mM GlutaMAX, 100 unit/ml penicillin, 100 μg/ml streptomycin, plus additional antibiotics for the transgene (0.5 mg/ml Geneticin for H2B-EGFP and mouse DJ-1 BAC transgene; 0.5 pug/ml puromycin for mCherry-CAAX), at 37° C. in a 5% CO2 environment. The DMEM with high glucose (5 g/1) was used unless specifically mentioned (e.g. FIG. 14). For atomic force microscopy (AFM) measurements of mammalian cells, a CO2-independent medium containing 4 mM sodium bicarbonate and 20 mM HEPES Was used. HeLa Cells Were RNAi-transfected with 160 nM endoribonuclease-digested small interfering RNA (MISSION esiRNA, Sigma) using oligofectamine reagent (Invitrogen). Paraquat (PQ^2+) was added 24 hours after RNAI. Cells were assayed after 48 hours from RNAI.
# To film the osmotically challenged HeLa cells, a DeltaVision system (Applied Precision) was used, equipped with an Olympus IX-71 Inverted microscope and a 40× (UPIanApo, NA=1.00) objective. Time-lapse images were acquired at 1-min intervals except during osmotic shock treatment (equal volume of water for hypotonic shock; equal volume of the AFM medium containing 2.86% (w/v) xylose for hypertonic shock). Deconvolved and maximally projected images were analyzed manually on Image.J to annotate the radius and the volume of the round objects (i.e. mitotic cells), assuming that the cells were spherical (Stewart et al., 2011). To image mitochondria of HeLa cells, MitoTracker Red CMXRos was added at 150 nM and fixed with 3% (v/w) paraformaldehyde in PBS, 1 mM MgCl2, and 5 mM EGTA. Chromatin was counter-stained by 1 μg/ml Hoechst33342. They were imaged on the DeltaVision system using a 60× objective (PlanApo N, NA=1.42, Olympus), and deconvolved and maximally projected images were used for the analysis. Due to high background of MitoTracker in the center of the cell, mitochondria in a 15×15 um area in the periphery were manually annotated on Image.J software.
# DJ-1 RNAi HeLa cells [2] = experiment: Mitotic rounding pressure of DJ-1 RNAi HeLa cells (AFM microcantilever); format: cell-based, human; conditions: for rescue of the reduced rounding pressure of mitotic DJ-1 RNAi cells: HeLa, substance added to medium, concentration not given; for rescue of the lower pressure phenotype in low or no glucose medium: HeLa kept 2 or more passages in low or no glucose medium before RNAi, measured 1 hour after addition; for rescue of the lower pressure phenotype at 10 mM: RNAi-treated mitotic HeLa cells, 10 mM supplement
# Experimental: as §1
# (§2) Cell rounding pressure analysis with microcantilevers Cells were grown on a glass-base dish (FD35, World Precision Instruments) with a silicon spacer, which was prepared from μ-Chamber 12 well (ibidi), in the center. Medium was replaced with the CO2-independent medium, then the dish was mounted on the stage of a light microscope (AxioObserver Z1 or Axiovert200, Zeiss) equipped with a 20× objective (Plan Apochromat, NA=0.80). To measure the force of the mitotic cell, a tipless microcantilever (NSC12/CSC37-B with a nominal spring constant of 0.3 N/m, MikroMasch, Estonia) mounted on a glass block of the AFM head (NanoWizard I or II, JPK instruments, Berlin) was used. Setup and calibration were done before every experiment; see Stewart et al (Stewart at al., 2012) for the details of the procedures. In a quick force measurement illustrated in FIG. 5A, the cantilever was set at […] above the glass dish and moved over the mitotically arrested cells to measure the equilibrium force. Measuring the cellular force and pressure through mitosis was done as described (Stewart at al., 2012, Stewart at al., 2011). Otherwise the cell pressure and volume were measured in a constant-height assay, as illustrated in FIG. 5B: the cantilever was first set at 14 μm height and placed over a metaphase cell to record rounding force. The cantilever was then brought down to 8 μm height at 0.1 μmu/sec, to measure peak and equilibrium forces. The maximal cross-section area of the cell was measured from the DIC or mCherry-CAAX image to calculate cell pressure and volume. Calculation of cell pressure and volume, and the contact area to the Cantilever was done as described (Stewart et al., 2012; Stewart et al., 2011). In every experiment, RNAi penetrance was confirmed by lower pressure of MYH9 RNAI-treated cells (Toyoda at al., 2011).
# [3] = test system: C. elegans ΔΔdjr double mutant and glod-4 single mutant larvae; format: in vivo
# Experimental: (Brenner, 1974). […] All mutants were outcrossed at least twice.
# Mitochondria staining was performed as previously described. Briefly, MitoTracker Deep Red or CMXROS (M22426, M7512, Life Technologies) were dissolved in DMSO at a concentration of 5 mM and kept at −20° C. as a stock solution. On the day of microscopy worms were incubated in a 1:1000 diluted MitoTracker for 45 min at room temperature. Worms were then paralyzed with 1 mM Levamizol (Sigma-Aldrich), placed on slides covered with a thin layer of NGM medium on top of which the coverslip (22×22 mm, Menzel-Glaser #1) was fixed using nail lack.
# Microscopy images from live paralyzed worm larvae stained with MitoTracker were taken using a confocal microscope (LSM510, Zeiss, Germany). Samples were excited using a 514 (MitoTracker CMXRos) or a 647 (MitoTracker Deep Red) nm lasers and two channels, one BP505-550 or LP650 and the BF channel were used to acquire the images. Gain was maintained between 450 and 515 for all samples to ensure the detection of signal intensity differences.
# [4] = test system: C. elegans larvae (ΔΔdjr, glod-4)
# Experimental: (A) The differential expression of djr-1.1, djr-1.2 and glod-4 was tested by RT-PCR in four replicates. […] (B) Length of the worms treated with PQ^2+. Bars and error bars show the mean and SD, respectively. […] Every strain was compared to its control at different PQ^2+ concentrations by two-way ANOVA followed by Tukey's honestly significant differences (HSD) test. (C) Worm larvae treated with PQ or control. Scale bar, 250 μm. (D) survival of the worm larvae treated with 200 μM paraquat and 1 mM of the Indicated supplements. Bars and error bars show the mean and SD, respectively. […] Every strain was compared to its own control by two-way ANOVA followed by Tukey's HSD test. Data were normalized by Freeman-Tukey's double arcsine transformation prior to ANOVA. *p<0.05; **p<0.01; ***p<0.001.
# All C. elegans strains were maintained on NGM agar plates seeded with Escherichia coli NA22 at 15° C. […] Mutant strains djr-1.1(tm918), djr-1.2(tm951) and glod4(tm1266) were obtained from National Bioresource Project, Japan. Wild type (N2) and daf-2 mutant strains were obtained from Caenorhabditis Genetics Center, USA. All mutants were outcrossed at least twice. DJ-1 double mutant djr-1.1(tm918), djr-1.2(tm951), abbreviated as ΔΔdjr, was achieved by crossing both single mutants. This strain was then further crossed to daf-2 to generate daf-2; ΔΔdjr triple mutant.
# [5] = test system: DJ-1 GLO1 double RNAi-treated cells; experiment: Mitotic rounding pressure of DJ-1 GLO1 double RNAi-treated cells (AFM); format: cell-based, human; conditions: both glyoxalases DJ-1 and GLO1 knocked down
# Experimental: as §1, with “HeLa Cells Were RNAi-transfected with 160 nM endoribonuclease-digested small interfering RNA (MISSION esiRNA, Sigma) using oligofectamine reagent (Invitrogen). Paraquat (PQ^2+) was added 24 hours after RNAI. Cells were assayed after 48 hours from RNAI.” left out
# Cell rounding pressure analysis with microcantilevers Cells were grown on a glass-base dish (FD35, World Precision Instruments) with a silicon spacer, which was prepared from μ-Chamber 12 well (ibidi), in the center. […] Otherwise the cell pressure and volume were measured in a constant-height assay, as illustrated in FIG. 5B: the cantilever was first set at 14 μm height and placed over a metaphase cell to record rounding force. […] The maximal cross-section area of the cell was measured from the DIC or mCherry-CAAX image to calculate cell pressure and volume. […]
# [6] = test system: primary mesencephalic dopaminergic neurons from wild type mouse embryos; experiment: In vitro survival of primary dopaminergic (TH+) neurons, wild type; format: cell-based; conditions: 3 mM glucose, 10 mM GA, 10 mM DL, 10 mM LL, TH+ cells relative to no supplement
# Experimental: (§3) Briefly, brain mesencephalons from E14.5 C57JBL6 or DJ-1 embryos were dissected under the microscope and digested with Trypsin-EDTA (Sigma-Aldrich). The trypsin reaction was stopped by adding the basic medium (BM) containing Neurobasal A medium (Gibco), 1 mg/ml penicillin/streptomycin, 10% (v/v) fetal calf serum (Invitrogen) and 2 mM L-glutamine and cells were mechanically dissociated using a fire-polished Pasteur pipette. Medium was fully replaced by centrifuging for 5 min. at 1200 rpm, aspiring the supernatant and adding 8 ml of the fresh BM to the pellet. […] The same volume of medium containing the different treatment substances was added 4 hours after plating to obtain the following treatment concentrations: control, 3 mM glucose, 10 mM GA, 10 mMDL and 10 mM LL. 24 hours later ⅓ of the medium was replaced with fresh BM. On DIV3 (day-in-vitro-culture 3) half of the medium was replaced with B27 medium containing Neurobasal A medium, 1 mg/ml penicillin/streptomycin, 2 mM L-Glutamine (Sigma-Aldrich) and B-27 supplement (Life Technologies) and on DIV5 all medium was replaced by B27 medium.
# (§4) Dopaminergic TH^+ neurons were observed using an inverted fluorescence microscope (Axiovert 200M, Zeiss) under a 10× objective (PlanApo, NA=0.45). The diameter of every well was scanned in two perpendicular directions (i.e. top to bottom and left to right) and total TH^+ neurons were counted for every well.
# [7] = test system: mitotic MEF cells (wild type and DJ-1 knock-out); experiment: Mitotic rounding pressure of mouse embryonic fibroblasts (AFM); format: cell-based; conditions: for rescue of the reduced rounding pressure of mitotic DJ-1-deficient MEFs: DJ-1 knock-out MEFs, concentration not given; for rescue of the lower pressure phenotype at 10 mM: mitotic DJ-1 KO MEF cells, measured after 1 hour; for rescue of the lower pressure phenotype at 10 mM / effect on pressure of mitotic WT MEFs (negative effects on cell mechanics): 10 mM supplement; for effect on pressure of mitotic WT MEFs (negative effects on cell mechanics): wild type MEFs
# Experimental: as §1, §2
# [8] = test system: dopaminergic neurons from DJ-1 knock out mice; experiment: In vitro survival of primary dopaminergic (TH+) neurons, DJ-1 knock out; format: cell-based, mouse; conditions: DJ-1 KO/mutant; 3 mM glucose, 10 mM GA, 10 mM DL
# Experimental: as §3, §4
# [9] = toxicology study; cited from earlier work
# [10] = estimated; cited from earlier work
# [11] = test system: primary dopaminergic neurons from wild-type E14.5 embryos treated with PQ2+; conditions: 12.5 μM PQ2+ for 72 hours, 10 mM supplement
# Experimental: Briefly, brain mesencephalons from E14.5 C57JBL6 or DJ-1 embryos were dissected under the microscope and digested with Trypsin-EDTA (Sigma-Aldrich). The trypsin reaction was stopped by adding the basic medium (BM) containing Neurobasal A medium (Gibco), 1 mg/ml penicillin/streptomycin, 10% (v/v) fetal calf serum (Invitrogen) and 2 mM L-glutamine and cells were mechanically dissociated using a fire-polished Pasteur pipette. Medium was fully replaced by centrifuging for 5 min. at 1200 rpm, aspiring the supernatant and adding 8 ml of the fresh BM to the pellet. […] The same volume of medium containing the different treatment substances was added 4 hours after plating to obtain the following treatment concentrations: control, 3 mM glucose, 10 mM GA, 10 mMDL and 10 mM LL. 24 hours later ⅓ of the medium was replaced with fresh BM. […]
# as §4
structure (smiles),measurement,setting,value
"CC(=O)C(=O)O [pyruvate, 2-oxopropanoic acid salt, reference compound]",rescue of the circular mitochondrial phenotype,DJ-1 RNAi HeLa cells [1],cannot rescue the circular phenotype
same,rescue of the reduced rounding pressure of mitotic DJ-1 RNAi cells,DJ-1 RNAi HeLa cells [2],"neither pyruvate, which is produced from glucose, nor glutamine, which can enter the Krebs cycle, rescued the DJ-1 pressure phenotype"
"O=C(O)CO [GA, 2-hydroxyethanoic acid]",reversal of circular mitochondria and diminished MitoTracker staining,[3]; paraquat-treated ΔΔdjr double mutant and glod-4 single mutant larvae,reversed
same,restoration of viability of ΔΔdjr mutant larvae,[4]; in vivo,restored
same,rescue of the pressure phenotype in DJ-1 and GLO1 double knock-down cells,[5],could rescue
same,in vitro survival of dopaminergic (TH+) neurons,[6],stimulated; also recorded: stimulate the survival
same,in vitro survival of dopaminergic (TH+) neurons,[6]; listed as Glycolate,support viability
same,rescue of the circular mitochondrial phenotype,DJ-1 RNAi HeLa cells [1],rescued
same,rescue of the circular mitochondrial phenotype,DJ-1 RNAi HeLa cells [1]; listed as glycolate,rescue mitochondria structure
same,rescue of the reduced rounding pressure of mitotic DJ-1-deficient MEFs,[7],could rescue the reduced pressure
same,rescue of the lower pressure phenotype at 10 mM,[7],rescued the lower pressure phenotype
same,effect on pressure of mitotic WT MEFs (negative effects on cell mechanics),[7],decreases pressure
same,rescue of the lower pressure phenotype in low or no glucose medium,DJ-1 RNAi HeLa cells [2],rescue of the lower pressure phenotype was observed
same,rescue of the reduced rounding pressure of mitotic DJ-1 RNAi cells,DJ-1 RNAi HeLa cells [2],could rescue the reduced pressure
same,rescue of the lower pressure phenotype at 10 mM,DJ-1 RNAi HeLa cells [2]; measured after 1 hour,rescued the lower pressure phenotype
same,survival of dopaminergic neurons from DJ-1 knock out mice,[8],could stimulate neuronal survival; also recorded: stimulate the survival
"CC(O)C(=O)O (stereo not shown) [lactic acid, 2-hydroxypropanoic acid]",amount declared as harmless,[9],about 8 g/day
"NC(=O)c1ccc(N)nc1 [6-aminonicotinamide, reference compound]",effect on the glucose-mediated rescue of pressure in DJ-1 RNAi cells,"DJ-1 RNAi HeLa cells [2]; mitotic HeLa, measured after 1 hour",inhibited
"NC(=O)CC[C@H](N)C(=O)O [glutamine, reference compound]",rescue of the reduced rounding pressure of mitotic DJ-1 RNAi cells,DJ-1 RNAi HeLa cells [2],"neither pyruvate, which is produced from glucose, nor glutamine, which can enter the Krebs cycle, rescued the DJ-1 pressure phenotype"
OCCOCCO [diethylene glycol],minimum toxic dose,[10],0.14 mg glycolic acid per kg of body weight
"C[C@H](O)C(=O)O [LL, L-(+)-lactic acid, reference compound]",rescue of the reduced rounding pressure of mitotic DJ-1-deficient MEFs,[7],had no effect
same,rescue of the lower pressure phenotype at 10 mM,[7],"but not LL, rescued the lower pressure phenotype"
same,effect on pressure of mitotic WT MEFs (negative effects on cell mechanics),[7],decreases pressure
same,rescue of the reduced rounding pressure of mitotic DJ-1 RNAi cells,DJ-1 RNAi HeLa cells [2],had no effect
"C[C@@H](O)C(=O)O [DL, D-(−)-lactic acid]",rescue of the pressure phenotype in DJ-1 and GLO1 double knock-down cells,[5],could rescue
same,in vitro survival of dopaminergic (TH+) neurons,[6],stimulated; also recorded: stimulate the survival
same,in vitro survival of dopaminergic (TH+) neurons,[6]; listed as D-lactate,support viability
same,rescue of the circular mitochondrial phenotype,DJ-1 RNAi HeLa cells [1],rescued
same,rescue of the circular mitochondrial phenotype,DJ-1 RNAi HeLa cells [1]; listed as D-lactate,rescue mitochondria structure
same,rescue of the reduced rounding pressure of mitotic DJ-1-deficient MEFs,[7],could rescue the reduced pressure
same,rescue of the lower pressure phenotype at 10 mM,[7],rescued the lower pressure phenotype
same,rescue of the toxic effect of paraquat on dopaminergic neurons,[11],significantly rescue the toxic effect of paraquat
same,rescue of the lower pressure phenotype in low or no glucose medium,DJ-1 RNAi HeLa cells [2],rescue of the lower pressure phenotype was observed
same,rescue of the reduced rounding pressure of mitotic DJ-1 RNAi cells,DJ-1 RNAi HeLa cells [2],could rescue the reduced pressure
same,rescue of the lower pressure phenotype at 10 mM,DJ-1 RNAi HeLa cells [2]; measured after 1 hour,rescued the lower pressure phenotype
same,survival of dopaminergic neurons from DJ-1 knock out mice,[8],could stimulate neuronal survival; also recorded: stimulate the survival
"C[n+]1ccc(-c2cc[n+](C)cc2)cc1 [paraquat, reference compound]",effect of paraquat on mitochondria of worm larvae,[3]; reproductive larvae of C. elegans,disrupted mitochondria
same,effect of paraquat on viability of glod-4 mutant larvae,"[4]; glod-4, 200 μM paraquat",not affected
same,effect of paraquat on viability of ΔΔdjr mutant larvae,"[4]; ΔΔdjr, 200 μM paraquat",decreased viability
same,effect of paraquat on mitochondrial structure,"DJ-1 RNAi HeLa cells [1]; low doses of paraquat, DJ-1 RNAi HeLa cells",disrupted mitochondrial structure

# — patent publication US10434077B2, “Glycolic acid and/or D-lactic acid for the treatment of neurodegenerative diseases” (MAX-PLANCK-GESELLSCHAFT ZUR FOERDERUNG DER WISSENSCHAFTEN …, priority 2014, dated 2019)
